Inhibition and IC50 data for 28 compounds are collected here from ChEMBL document CHEMBL1147635, “KMI-358 and KMI-370, highly potent and small-sized BACE1 inhibitors containing phenylnorstatine” (Bioorg Med Chem Lett, 2004).

Each structure is given as a SMILES string. *1 amine or outer side, *2 acyl side, *3 side chain or, on linkers, in order; H or OH if unused. Where a SMILES comes first, the peptide text is derived from it. [ ]: non-standard residue; d: D form. β3hPhe(2R-OH) = O=C([C@H](O)[C@H](Cc1ccccc1)N[*:1])[*:2]; Dap = NC[C@H](N)C(=O)O; CO = O=C([*:1])[*:2]

T1 sequence (P56817 whole entry): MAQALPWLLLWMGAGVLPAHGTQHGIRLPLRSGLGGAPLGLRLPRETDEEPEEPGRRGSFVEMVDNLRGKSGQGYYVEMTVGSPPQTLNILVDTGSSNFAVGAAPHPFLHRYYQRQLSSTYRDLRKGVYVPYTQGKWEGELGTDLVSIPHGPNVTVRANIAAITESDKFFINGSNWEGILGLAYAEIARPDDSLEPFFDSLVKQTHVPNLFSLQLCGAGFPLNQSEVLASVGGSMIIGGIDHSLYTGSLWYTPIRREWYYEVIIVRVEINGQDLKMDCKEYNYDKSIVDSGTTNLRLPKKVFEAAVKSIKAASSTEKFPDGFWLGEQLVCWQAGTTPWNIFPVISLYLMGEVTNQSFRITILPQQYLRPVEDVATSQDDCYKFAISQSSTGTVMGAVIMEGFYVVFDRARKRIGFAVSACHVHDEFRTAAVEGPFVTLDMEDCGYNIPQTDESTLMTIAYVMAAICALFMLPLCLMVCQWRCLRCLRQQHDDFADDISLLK

One test has as its target T1, Beta-secretase 1 (Homo sapiens, UniProt P56817). The experiment in a line: Inhibition of Beta-secretase 1 at 2 uM concentration.
By inhibition is commonly meant the change of the read-out against control, counted positive when it falls. A high value points to a strong effect. Compound `CC(C)C[C@H](NC(=O)[C@@H](NC(=O)[C@@H](N)CCC(=O)O)C(C)C)C(=O)N[C@@H](Cc1ccccc1)[C@@H](O)C(=O)Nc1cc(C(=O)O)cc(C(=O)O)c1` displayed an inhibition of over 90%.
On the same count and under the same terms, the result for `CC(C)C[C@H](NC(=O)[C@@H](NC(=O)[C@@H](N)CCC(=O)O)C(C)C)C(=O)N[C@@H](Cc1ccccc1)[C@@H](O)C(=O)NCc1ccc(C(=O)O)cc1` reads 52%; that for `CC(C)C[C@H](NC(=O)[C@@H](NC(=O)[C@@H](N)CCC(=O)O)C(C)C)C(=O)N[C@@H](Cc1ccccc1)[C@@H](O)C(=O)NCc1cccc(C(=O)O)c1`, 64%; that for `CC(C)C[C@H](NC(=O)[C@@H](NC(=O)[C@@H](N)CCC(=O)O)C(C)C)C(=O)N[C@@H](Cc1ccccc1)[C@@H](O)C(=O)NCc1ccccc1`, 30%.
As to `CC(C)C[C@H](NC(=O)[C@@H](NC(=O)[C@@H](N)CCC(=O)O)C(C)C)C(=O)N[C@@H](Cc1ccccc1)[C@@H](O)C(=O)Nc1ccc(C(=O)O)cc1`, the inhibition was found to be 79%.
On the same count and under the same terms, the result for `CC(C)C[C@H](NC(=O)[C@@H](NC(=O)[C@@H](N)CNC(=O)O)C(C)C)C(=O)N[C@@H](Cc1ccccc1)[C@@H](O)C(=O)N[C@@H](CC(=O)O)C(=O)N[C@@H](C)C(=O)N[C@@H](CCC(=O)O)C(=O)O` (H-[Dap](CO)VL[β3hPhe(2R-OH)]DAE-OH) reads over 90%; that for `CC(C)C[C@H](NC(=O)[C@@H](NC(=O)[C@@H](N)CC(=O)O)C(C)C)C(=O)N[C@@H](Cc1ccccc1)[C@@H](O)C(=O)N[C@@H](CC(=O)O)C(=O)N[C@@H](C)C(=O)N[C@@H](CCC(=O)O)C(=O)O` (HELM PEPTIDE1{D.V.L.[O=C([C@H](O)[C@H](Cc1ccccc1)N[*:1])[*:2]].D.A.E}$$$$V2.0), under 20%.
Take `CC(C)[C@H](NC(=O)[C@@H](N)CCC(=O)O)C(=O)NCC(=O)N[C@@H](Cc1ccccc1)[C@@H](O)C(=O)N[C@@H](CC(=O)O)C(=O)N[C@@H](C)C(=O)N[C@@H](CCC(=O)O)C(=O)N[C@@H](Cc1ccccc1)C(=O)O` (HELM PEPTIDE1{E.V.G.[O=C([C@H](O)[C@H](Cc1ccccc1)N[*:1])[*:2]].D.A.E.F}$$$$V2.0): the inhibition is under 20%.
On the same count and under the same terms, for `CC(C)C[C@H](NC(=O)[C@@H](NC(=O)[C@@H](N)CCC(=O)O)C(C)C)C(=O)N[C@@H](Cc1ccccc1)[C@@H](O)C(=O)N[C@@H](CC(=O)O)C(=O)N[C@@H](C)C(=O)N[C@@H](CCC(=O)O)C(=O)N[C@@H](Cc1ccccc1)C(=O)O` (HELM PEPTIDE1{E.V.L.[O=C([C@H](O)[C@H](Cc1ccccc1)N[*:1])[*:2]].D.A.E.F}$$$$V2.0) the value was under 90%; for `CC(C)C[C@H](NC(=O)[C@@H](NC(=O)[C@@H](N)CCC(=O)O)C(C)C)C(=O)N[C@@H](Cc1ccccc1)[C@@H](O)C(=O)N[C@@H](CC(=O)O)C(=O)N[C@@H](C)C(=O)N[C@@H](CCC(=O)O)C(=O)NCC(=O)O` (HELM PEPTIDE1{E.V.L.[O=C([C@H](O)[C@H](Cc1ccccc1)N[*:1])[*:2]].D.A.E.G}$$$$V2.0), 65%; for `CC(C)C[C@H](NC(=O)[C@@H](NC(=O)[C@@H](N)CCC(=O)O)C(C)C)C(=O)N[C@@H](Cc1ccccc1)[C@@H](O)C(=O)N[C@@H](CC(=O)O)C(=O)N[C@@H](C)C(=O)N[C@@H](CCC(=O)O)C(=O)O` (HELM PEPTIDE1{E.V.L.[O=C([C@H](O)[C@H](Cc1ccccc1)N[*:1])[*:2]].D.A.E}$$$$V2.0), 60%.
The same measure, in the same setting: the result for `CC(C)C[C@H](NC(=O)[C@@H](NC(=O)[C@@H](N)CCC(=O)O)C(C)C)C(=O)N[C@@H](Cc1ccccc1)[C@@H](O)C(=O)N[C@@H](CC(=O)O)C(=O)N[C@@H](C)C(=O)O` (HELM PEPTIDE1{E.V.L.[O=C([C@H](O)[C@H](Cc1ccccc1)N[*:1])[*:2]].D.A}$$$$V2.0) reads 46%.
The same measure, in the same setting: the result for `CC(C)C[C@H](NC(=O)[C@@H](NC(=O)[C@@H](N)CCC(=O)O)C(C)C)C(=O)N[C@@H](Cc1ccccc1)[C@@H](O)C(=O)N[C@@H](CC(=O)O)C(=O)NCC(=O)N[C@@H](CCC(=O)O)C(=O)N[C@@H](Cc1ccccc1)C(=O)O` (HELM PEPTIDE1{E.V.L.[O=C([C@H](O)[C@H](Cc1ccccc1)N[*:1])[*:2]].D.G.E.F}$$$$V2.0) reads 73%; that for `CC(C)C[C@H](NC(=O)[C@@H](NC(=O)[C@@H](N)CCC(=O)O)C(C)C)C(=O)N[C@@H](Cc1ccccc1)[C@@H](O)C(=O)N[C@@H](CC(=O)O)C(=O)O` (HELM PEPTIDE1{E.V.L.[O=C([C@H](O)[C@H](Cc1ccccc1)N[*:1])[*:2]].D}$$$$V2.0), 61%; that for `CC(C)C[C@H](NC(=O)[C@@H](NC(=O)[C@@H](N)CCC(=O)O)C(C)C)C(=O)N[C@@H](Cc1ccccc1)[C@@H](O)C(=O)NCC(=O)N[C@@H](C)C(=O)N[C@@H](CCC(=O)O)C(=O)N[C@@H](Cc1ccccc1)C(=O)O` (HELM PEPTIDE1{E.V.L.[O=C([C@H](O)[C@H](Cc1ccccc1)N[*:1])[*:2]].G.A.E.F}$$$$V2.0), 54%.
Compound `CC(C)C[C@H](NC(=O)[C@@H](NC(=O)CN)C(C)C)C(=O)N[C@@H](Cc1ccccc1)[C@@H](O)C(=O)N[C@@H](CC(=O)O)C(=O)N[C@@H](C)C(=O)N[C@@H](CCC(=O)O)C(=O)N[C@@H](Cc1ccccc1)C(=O)O` (HELM PEPTIDE1{G.V.L.[O=C([C@H](O)[C@H](Cc1ccccc1)N[*:1])[*:2]].D.A.E.F}$$$$V2.0) had an inhibition of under 20%.
Take `CC(C)C[C@H](N)C(=O)N[C@@H](Cc1ccccc1)[C@@H](O)C(=O)N[C@@H](CC(=O)O)C(=O)N[C@@H](C)C(=O)N[C@@H](CCC(=O)O)C(=O)N[C@@H](Cc1ccccc1)C(=O)O` (HELM PEPTIDE1{L.[O=C([C@H](O)[C@H](Cc1ccccc1)N[*:1])[*:2]].D.A.E.F}$$$$V2.0): the inhibition was under 20%.
The same measure, in the same setting: the result for `CC(C)C[C@H](NC(=O)[C@@H](NC(=O)[C@@H](N)CCC(N)=O)C(C)C)C(=O)N[C@@H](Cc1ccccc1)[C@@H](O)C(=O)N[C@@H](CC(=O)O)C(=O)N[C@@H](C)C(=O)N[C@@H](CCC(=O)O)C(=O)O` (HELM PEPTIDE1{Q.V.L.[O=C([C@H](O)[C@H](Cc1ccccc1)N[*:1])[*:2]].D.A.E}$$$$V2.0) reads under 20%.
`CC(C)C[C@H](NC(=O)[C@@H](N)C(C)C)C(=O)N[C@@H](Cc1ccccc1)[C@@H](O)C(=O)N[C@@H](CC(=O)O)C(=O)N[C@@H](C)C(=O)N[C@@H](CCC(=O)O)C(=O)N[C@@H](Cc1ccccc1)C(=O)O` (HELM PEPTIDE1{V.L.[O=C([C@H](O)[C@H](Cc1ccccc1)N[*:1])[*:2]].D.A.E.F}$$$$V2.0): the inhibition was under 20%.
On the same count and under the same terms, the result for `CC(C)C[C@H](NC(=O)[C@@H](NC(=O)[C@@H](N)CCCC(=O)O)C(C)C)C(=O)N[C@@H](Cc1ccccc1)[C@@H](O)C(=O)N[C@@H](CC(=O)O)C(=O)N[C@@H](C)C(=O)N[C@@H](CCC(=O)O)C(=O)O` (HELM PEPTIDE1{[N[C@@H](CCCC(=O)O)C(=O)[*:2]].V.L.[O=C([C@H](O)[C@H](Cc1ccccc1)N[*:1])[*:2]].D.A.E}$$$$V2.0) reads 43%.
Take `C[C@H](NC(=O)[C@H](CC(=O)O)NC(=O)[C@H](O)[C@@H](N)Cc1ccccc1)C(=O)N[C@@H](CCC(=O)O)C(=O)N[C@@H](Cc1ccccc1)C(=O)O` (HELM PEPTIDE1{[N[C@@H](Cc1ccccc1)[C@@H](O)C(=O)[*:2]].D.A.E.F}$$$$V2.0): the inhibition was under 20%.
`CC(C)C[C@H](NC(=O)[C@@H](NC(=O)CCCC(=O)O)C(C)C)C(=O)N[C@@H](Cc1ccccc1)[C@@H](O)C(=O)N[C@@H](CC(=O)O)C(=O)N[C@@H](C)C(=O)N[C@@H](CCC(=O)O)C(=O)O` (HELM PEPTIDE1{[O=C(O)CCCC(=O)[*:2]].V.L.[O=C([C@H](O)[C@H](Cc1ccccc1)N[*:1])[*:2]].D.A.E}$$$$V2.0): the inhibition was under 20%.
Same read-out and setting: for `CC(C)C[C@H](NC(=O)[C@@H](NC(=O)[C@@H](N)CCC(=O)O)C(C)C)C(=O)N[C@@H](Cc1ccccc1)[C@@H](O)C(=O)Nc1cccc(C(=O)O)c1` (mixture of isomers) the value was 82%; for `CC(C)C[C@H](NC(=O)[C@@H](NC(=O)[C@@H](N)CCC(=O)O)C(C)C)C(=O)N[C@@H](Cc1ccccc1)[C@@H](O)C(=O)O` (mixture of isomers), 34%.
Still for that read-out and setting: the result for `CC(C)C[C@H](NC(=O)CNC(=O)[C@@H](N)CCC(=O)O)C(=O)N[C@@H](Cc1ccccc1)C(O)C(=O)N[C@@H](CC(=O)O)C(=O)NC(C)C(=O)N[C@@H](CCC(=O)O)C(=O)N[C@@H](Cc1ccccc1)C(=O)O` (single isomer, unassigned) reads under 20%.
The same measure, in the same setting: for `CC(C)C[C@H](NC(=O)[C@@H](NC(=O)[C@@H](N)CCC(=O)O)C(C)C)C(=O)N[C@@H](Cc1ccccc1)[C@@H](O)C(=O)N[C@@H](CC(=O)O)C(=O)NC(C)C(=O)NCC(=O)N[C@@H](Cc1ccccc1)C(=O)O` (single isomer, unassigned) the value was 56%.

In a further test the target is T1, Beta-secretase 1. In words: Inhibitory concentration of compound against Beta-secretase 1 was evaluated.
By IC50 is commonly meant the concentration that inhibits the measured activity by half. Lower therefore signals higher potency. For `CC(C)C[C@H](NC(=O)[C@@H](NC(=O)[C@@H](N)CNC(=O)O)C(C)C)C(=O)N[C@@H](Cc1ccccc1)[C@@H](O)C(=O)Nc1cc(C(=O)O)cc(C(=O)O)c1`, the IC50 stood at 3.4 nM.
On the same count and under the same terms, the result for `CC(C)C[C@H](NC(=O)[C@@H](NC(=O)[C@@H](N)CCC(=O)O)C(C)C)C(=O)N[C@@H](Cc1ccccc1)[C@@H](O)C(=O)Nc1cc(C(=O)O)cc(C(=O)O)c1` reads 55 nM; that for `CC(C)C[C@H](NC(=O)[C@@H](NC(=O)[C@@H](N)CNC(=O)O)C(C)C)C(=O)N[C@@H](Cc1ccccc1)[C@@H](O)C(=O)Nc1cccc(C(=O)O)c1`, 16 nM.
On the same count and under the same terms, the result for `CC(C)C[C@H](NC(=O)[C@@H](NC(=O)[C@@H](N)CNC(=O)O)C(C)C)C(=O)N[C@@H](Cc1ccccc1)[C@@H](O)C(=O)N[C@@H](CC(=O)O)C(=O)N[C@@H](C)C(=O)N[C@@H](CCC(=O)O)C(=O)O` (H-[Dap](CO)VL[β3hPhe(2R-OH)]DAE-OH) reads 84 nM.
